Measured values published in patent publication US9850245B2 (Merck Sharp & Dohme Corp., priority 2014, dated 2017).
Where a name gives a salt, the structure may show the parent alone.

What follows are compounds tested against ROMK (Homo sapiens (Human), UniProt P48048) (assay: Thallium Flux Assay).
Chain of ROMK (P48048 whole entry): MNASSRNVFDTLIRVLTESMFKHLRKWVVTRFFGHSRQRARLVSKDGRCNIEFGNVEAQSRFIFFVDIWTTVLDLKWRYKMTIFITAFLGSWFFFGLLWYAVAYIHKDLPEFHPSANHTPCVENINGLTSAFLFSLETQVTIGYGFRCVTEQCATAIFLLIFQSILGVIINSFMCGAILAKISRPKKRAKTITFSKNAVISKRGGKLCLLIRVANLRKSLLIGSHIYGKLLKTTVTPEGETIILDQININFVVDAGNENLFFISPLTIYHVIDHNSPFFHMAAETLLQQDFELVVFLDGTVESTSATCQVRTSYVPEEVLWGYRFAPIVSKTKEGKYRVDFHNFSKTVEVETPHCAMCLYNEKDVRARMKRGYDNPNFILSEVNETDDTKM
Format: cell-based
Procedure: A Thallium Flux Assay was performed on the compounds of the Examples. This assay has been described previously; see, e.g., PCT Published Application WO 2013/062900.
In the case of CC1=C(N2CCNC3(CCN(CC(O)c4cnc(-n5cnnn5)cn4)CC3)C2=O)COC1=O (single isomer, unassigned) [Example 3B, 9-(2-(5-(1H-tetrazol-1-yl)pyrazin-2-yl)-2-hydroxyethyl)-4-(4-methyl-5-oxo-2,5-dihydrofuran-3-yl)-1,4,9-triazaspiro[5.5]undecan-5-one], the IC50 is reported as 142 nM.
For O=C1C=C(N2CCOC3(CCN(C[C@H](O)c4ccc(-n5cnnn5)nc4)CC3)C2=O)CO1 [Example 12, (R)-9-(2-(6-(1H-tetrazol-1-yl)pyridin-3-yl)-2-hydroxyethyl)-4-(5-oxo-2,5-dihydrofuran-3-yl)-1-oxa-4,9-diazaspiro[5.5]undecan-5-one], the IC50 was 161 nM.
CC1=C(N2CC3(CCN(C[C@H](O)c4ccc5c(c4C)COC5=O)CC3)OCC2=O)COC1=O [Example 59, (R)-9-(2-hydroxy-2-(4-methyl-1-oxo-1,3-dihydroisobenzofuran-5-yl)ethyl)-4-(4-methyl-5-oxo-2,5-dihydrofuran-3-yl)-1-oxa-4,9-diazaspiro[5.5]undecan-3-one] was tested, and the IC50 was 697 nM.
CC1=C(N2CC(F)(F)OC3(CCN(C[C@@H](O)c4ccc(-n5cnnn5)nc4)CC3)C2)COC1=O [Example 7B, (S)-4-(9-(2-(6-(1H-tetrazol-1-yl)pyridin-3-yl)-2-hydroxyethyl)-2,2-difluoro-1-oxa-4,9-diazaspiro[5.5]undecan-4-yl)-3-methylfuran-2(5H)-one] showed an IC50 of 688 nM.
In the case of O=C1C=C(N2CCC3(CCN(C[C@H](O)c4ccc(-n5cnnn5)nc4)CC3)OC2=O)CO1 [Example 26A, (R)-9-(2-(6-(1H-tetrazol-1-yl)pyridin-3-yl)-2-hydroxyethyl)-3-(5-oxo-2,5-dihydrofuran-3-yl)-1-oxa-3,9-diazaspiro[5.5]undecan-2-one], the IC50 is reported as 171 nM.
With COc1cc(-n2cnnn2)ccc1C(O)CN1CCC2(CC1)CN(C1=C(C)C(=O)OC1)CCO2 (single isomer, unassigned) [Example 33A, 4-(9-(2-hydroxy-2-(2-methoxy-4-(1H-tetrazol-1-yl)phenyl)ethyl)-1-oxa-4,9-diazaspiro[5.5]undecan-4-yl)-3-methylfuran-2(5H)-one] the IC50 was 30.5 nM.
Compound CC1=C(N2CCOC3(CCN(C[C@H](F)c4ccc(-n5cnnn5)nc4)CC3)C2=O)COC1=O [Example 55, (R)-9-(2-(6-(1H-tetrazol-1-yl)pyridin-3-yl)-2-fluoroethyl)-4-(4-methyl-5-oxo-2,5-dihydrofuran-3-yl)-1-oxa-4,9-diazaspiro[5.5]undecan-5-one] has an IC50 of 59 nM.
In the case of O=C1OCC(N2CCOC3(CCN(C[C@H](O)c4ccc(-n5cnnn5)nc4)CC3)C2)=C1C1CC1 [Example 28A, (R)-4-(9-(2-(6-(1H-tetrazol-1-yl)pyridin-3-yl)-2-hydroxyethyl)-1-oxa-4,9-diazaspiro[5.5]undecan-4-yl)-3-cyclopropylfuran-2(5H)-one], the IC50 is reported as 224 nM.
With Cc1cc(-n2cnnn2)ccc1C(O)CN1CCC2(CC1)CN(C1=CC(=O)OC1)CCO2 (single isomer, unassigned) [Example 30B, 4-(9-(2-hydroxy-2-(2-methyl-4-(1H-tetrazol-1-yl)phenyl)ethyl)-1-oxa-4,9-diazaspiro[5.5]undecan-4-yl)furan-2(5H)-one] the IC50 was 74.3 nM.
Compound CC1=C(N2CCNC3(CCN(C[C@H](O)c4ccc5c(c4C)COC5=O)CC3)C2=O)COC1=O [Example 1, 9-[(2R)-2-hydroxy-2-(4-methyl-1-oxo-1,3-dihydro-2-benzofuran-5-yl)ethyl]-4-(4-methyl-5-oxo-2,5-dihydrofuran-3-yl)-1,4,9-triazaspiro[5.5]undecan-5-one dihydrochloride] has an IC50 of 68.7 nM.
Compound CC1=C(N2CCN(C)C3(CCN(CC(O)c4ccc(-n5cnnn5)nc4C)CC3)C2=O)COC1=O (single isomer, unassigned) [Example 35B, 9-(2-hydroxy-2-(2-methyl-6-(1H-tetrazol-1-yl)pyridin-3-yl)ethyl)-1-methyl-4-(4-methyl-5-oxo-2,5-dihydrofuran-3-yl)-1,4,9-triazaspiro[5.5]undecan-5-one] has an IC50 of 144 nM.
In the case of CC1=C(N2CCNC3(CCN(CC(O)c4ccc(-n5cnnn5)cc4)CC3)C2=O)COC1=O (single isomer, unassigned) [Example 5A, 9-(2-(4-(1H-tetrazol-1-yl)phenyl)-2-hydroxyethyl)-4-(4-methyl-5-oxo-2,5-dihydrofuran-3-yl)-1,4,9-triazaspiro[5.5]undecan-5-one], the IC50 is reported as 42.5 nM.
With CC1=C(N2C(=O)C3(CCN(C[C@@H](O)c4ccc(-n5cnnn5)nc4)CC3)OCC2C)COC1=O (single isomer, unassigned) [Example 10C] the IC50 was 317 nM.
Work on O=C1OCC(N2CCOC3(CCN(C[C@@H](O)c4ccc(-n5cnnn5)nc4)CC3)C2)=C1C1CC1 [Example 28B, (S)-4-(9-(2-(6-(1H-tetrazol-1-yl)pyridin-3-yl)-2-hydroxyethyl)-1-oxa-4,9-diazaspiro[5.5]undecan-4-yl)-3-cyclopropylfuran-2(5H)-one] yielded an IC50 of 630 nM.
Compound CC1=C(N2C(=O)C3(CCN(C[C@@H](O)c4ccc(-n5cnnn5)nc4)CC3)OCC2C)COC1=O (single isomer, unassigned) [Example 10A] has an IC50 of 155 nM.
Work on CC1=C(N2CCNC3(CCN(C[C@@H](O)c4ccc(-n5cnnn5)nc4)CC3)C2=O)COC1=O [Example 4B, (S)-9-(2-(6-(1H-tetrazol-1-yl)pyridin-3-yl)-2-hydroxyethyl)-4-(4-methyl-5-oxo-2,5-dihydrofuran-3-yl)-1,4,9-triazaspiro[5.5]undecan-5-one] yielded an IC50 of 63.1 nM.
Compound CC1COC2(CCN(C[C@@H](O)c3ccc(-n4cnnn4)nc3)CC2)C(=O)N1C1=CC(=O)OC1 (single isomer, unassigned) [Example 13A] has an IC50 of 230 nM.
In the case of CC1=C(N2CCNC3(CCN(CC(O)c4ccc(-n5cnnn5)nc4C)CC3)C2=O)COC1=O (single isomer, unassigned) [Example 2B, 9-(2-hydroxy-2-(2-methyl-6-(1H-tetrazol-1-yl)pyridin-3-yl)ethyl)-4-(4-methyl-5-oxo-2,5-dihydrofuran-3-yl)-1,4,9-triazaspiro[5.5]undecan-5-one], the IC50 is reported as 56.2 nM.
CC1COC2(CCN(C[C@H](O)c3ccc(-n4cnnn4)nc3)CC2)C(=O)N1C1=CC(=O)OC1 (single isomer, unassigned) [Example 13B] gave an IC50 of 415 nM.
With Cc1nc(-n2cnnn2)ccc1C(O)CN1CCC2(CC1)CN(C1=CC(=O)OC1)C(=O)O2 (single isomer, unassigned) [Example 17, 8-(2-hydroxy-2-(2-methyl-6-(1H-tetrazol-1-yl)pyridin-3-yl)ethyl)-3-(5-oxo-2,5-dihydrofuran-3-yl)-1-oxa-3,8-diazaspiro[4.5]decan-2-one] the IC50 was 468 nM.
CC1=C(N2CCOC3(CCN(CC(O)c4cnc(-n5cnnn5)cn4)CC3)C2=O)COC1=O (single isomer, unassigned) [Example 18B, 9-(2-(5-(1H-tetrazol-1-yl)pyrazin-2-yl)-2-hydroxyethyl)-4-(4-methyl-5-oxo-2,5-dihydrofuran-3-yl)-1-oxa-4,9-diazaspiro[5.5]undecan-5-one] gave an IC50 of 110 nM.
For CC1=C(N2CCN(C)C3(CCN(CC(O)c4ccc(-n5cnnn5)nc4C)CC3)C2=O)COC1=O (single isomer, unassigned) [Example 35A, 9-(2-hydroxy-2-(2-methyl-6-(1H-tetrazol-1-yl)pyridin-3-yl)ethyl)-1-methyl-4-(4-methyl-5-oxo-2,5-dihydrofuran-3-yl)-1,4,9-triazaspiro[5.5]undecan-5-one], the IC50 was 41.8 nM.
